Source: US6716829B2, “Aldosterone antagonist and cyclooxygenase-2 inhibitor combination therapy to prevent or treat inflammation-related cardiovascular disorders” (Pharmacia Corporation, priority 2000, dated 2004)
“And” between values parts separate entries of the source, which are not always exact repeats. Equal entries are not always repeated. “Also recorded” adds a separate entry of the source.

What was measured:
aldosterone infused rats = assay: Assay B, aldosterone infusion model: systolic blood pressure by radio-telemetry; assay type: in vivo, Male Sprague Dawley rats; conditions: 1% NaCl, uni-nephrectomized rats, eplerenone 100 mpk p.o., 4 weeks
Experimental: Human cardiovascular disorders are complex conditions, often initiated by vascular hypertension or a myocardial infarction (MI). In order to determine the probable effectiveness of a therapy for cardiovascular disorders, it is important to determine the potency of components in several assays. Accordingly, in Assay “A”, the efficacy of the aldosterone antagonist epeplerenone (epoxymexrenone) was determined in a hypertensive rat model with vascular inflammation, using angiotensin II infusion. In Assay “B” a study is described evaluating the efficacy of the aldosterone antagonist epeplerenone (epoxymexrenone) in a rat model using aldosterone infusion to produce hypertension with vascular inflammation. In Assay “C” a further study is described evaluating the efficacy of the aldosterone antagonist epeplerenone (epoxymexrenone) in a rat model using aldosterone infusion to produce hypertension with vascular inflammation. Assay B: In Vivo Aldosterone Infusion Model Male Sprague Dawley rats (n=39; BW=250 g) […] Uni-nephrectomy performed during implantation of mini-pumps 2. Aldosterone ([…], sc via alzet minipump) 2. […] 1. […] SBP measured by radio-telemetry probes inserted in the abdominal aorta

[1] = system: Transforming growth factor beta 1 (TGFβ1); assay: Assay C: TGFβ1 mRNA by TaqMan RT-PCR; assay type: in vivo, Male Sprague-Dawley rats; conditions: for TGF-β1 mRNA (AU): relative to cyclophilin expression, mean ± SEM, eplerenone dose 100 mg/kg/day; for TGF-β (AU): mRNA, individual rats, incl. rat marked * excluded from statistics
Experimental: The procedure of Assay B was expanded upon in a further study. […] Myocardial tissue from animals in each treatment group was examined after 7, 14, or 30 days of treatment.
Potassium chloride supplementation was added to the saline solution in order to prevent the potential hypokalemia associated with aldosterone excess.
At the time of the surgery, an Alzet 2002 osmotic minipump (Alza Corp., Palo Alto, Calif.) containing either vehicle (9% ethanol/87% propylene glycol/4% dH2O) or 1.0 mg/mL d-aldosterone (Sigma Chemical, St. Louis, Mo.) was inserted subcutaneously at the nape of the neck. Aldosterone was administered at a dose of 0.75 µg/hour. […] Animals were sacrificed from each group (n=8-13) after 7, 14, or 30 days of treatment.
The fluorogenic 5′-nuclease assay (TaqMan PCR) using Applied Biosystems' 7700 Sequence Detection System (Applied Biosystems, Foster City, Calif.) allowed for real time detection/quantitation of a specific gene by monitoring the increase in fluorescence of a gene-specific, dye-labeled oligonucleotide probe. Probes for target and reference genes were labeled at the 5′-end with a 6-carboxyfluorescein (6FAM) reporter dye and at the 3′-end with a 6-carboxy-N,N,N′,N′-tetramethylrhodamine (TAMRA) quencher dye. When the probe was annealed to the target gene, fluorescence of 6FAM was prevented by the close proximity of TAMRA. The exonuclease activity of Taq polymerase released the dyes from the oligonucleotide probe by displacing the probe from the target sequence resulting in fluorescence excitation in direct proportion to the amount of target message present. Data analysis was performed using the Sequence Detection System software from Applied Biosystems.
Primers and probes were designed using Oligo Primer Analysis Software, Version 5.0 (National Biosciences Inc. (NBI)-Wojciech Rychlik, Cascade, Colo.). Primers were synthesized by Life Technologies (Grand Island, N.Y.) and probes were synthesized by Applied Biosystems. Primer/probe sets were designed from known sequences of rat genes to be analyzed. All target gene values were normalized to a reference gene, constitutively expressed cyclophilin. Primer/probe sets sequences can be found in Table 8
RNA was extracted from frozen (−70° C.) left ventricle (LV) tissue (approximately 10-20 mg) using 1.5 mL RNA-STAT 60 according to manufacturer's instructions (Leedo Medical Laboratories, Inc., Houston, Tex.). Briefly, tissues were homogenized using a tissue homogenizer equipped with a 5 mm probe (Ultra-Turrax T8 Homogenizer, IKA Works, Inc. Wilmington, N.C.). Following homogenization, an equal volume of molecular grade chloroform (Sigma Chemical Co., St. Louis, Mo.) was incubated with periodic mixing for 10 min at room temperature. Samples were centrifuged at 12,000 g for 10 min and RNA was precipitated from the top layer by adding an equal volume of molecular grade isopropanol (Sigma Chemical Co.) followed by an overnight incubation at −80° C. RNA was pelleted by centrifugation at 12,000 g, washed with 75% ethanol, and solubilized in nuclease-free water (Promega, Madison, Wis.).
Double-stranded cDNA was synthesized by adding 400 ng RNA (4 uL) to a final volume of 20 uL containing 15% nuclease-free water (Promega, Madison, Wis.), 1×RT Buffer (Life Technologies, Grand Island, N.Y.), 10 mM DTT (Life Technologies), 0.5 mM each of dATP, dTTP, dGTP, dCTP (PE Biosystems, Foster City, Calif.), 2.5 μM Oligo d(T)15 (Oligo Therapeutics, Inc., Wilsonville, Oreg.), 40 units RNAsin (Promega), and 200 units SuperScript II Reverse Transcriptase (Life Technologies). The reactions were performed in thin-walled reaction tubes with caps (Applied Biosystems) to ensure accurate reaction temperatures.

hydroxyproline = assay: Assay C: myocardial hydroxyproline assay; assay type: in vivo, Male Sprague-Dawley rats
Experimental: The procedure of Assay B was expanded upon in a further study. […] Myocardial tissue from animals in each treatment group was examined after 7, 14, or 30 days of treatment. […] Lesions were preceded by the expression and progressive upregulation of proinflammatory molecules. […] Prior to surgery the animals were individually weighed and placed in one of the following groups: […] Potassium chloride supplementation was added to the saline solution in order to prevent the potential hypokalemia associated with aldosterone excess. […] Louis, Mo.) was inserted subcutaneously at the nape of the neck. Aldosterone was administered at a dose of 0.75 µg/hour. […] Animals were sacrificed from each group (n=8-13) after 7, 14, or 30 days of treatment. Following exsanguination, hearts and kidneys were isolated, removed, rinsed in cold phosphate-buffered saline, and blotted dry. […] Myocardial hydroxyproline concentration was measured by a […] assay that quantifies the reaction between oxidized hydroxyproline, and p-dimethylaminobenzaldehyde as described previously (4). […] Dried tissues and a positive collagen control (Bovine Collagen Type I, Sigma, St. […] T. Baker, Phillipsburg, N.J.) for 5 min at 25° C. […] Samples were incubated at 60° C. for 30 min, cooled to room temperature, and absorbance was monitored at 558 nm. Hydroxyproline content was quantitated from a freshly prepared standard curve of trans-4-hydroxy-L-proline (Sigma, St. Louis, Mo.). All samples and standards were performed in duplicate.

[2] = group mean, data used for Table 15 (14 days of treatment)
[3] = group mean, data used for Table 16 (30 days of treatment)
[4] = mean after 7 days of treatment, eplerenone dose 100 mg/kg/day
[5] = mean after 14 days of treatment, eplerenone dose 100 mg/kg/day
[6] = mean after 30 days of treatment, eplerenone dose 100 mg/kg/day

Structure (SMILES): COC(=O)[C@@H]1CC2=CC(=O)CC[C@]2(C)[C@@]23O[C@@H]2C[C@@]2(C)[C@@H](CC[C@@]24CCC(=O)O4)[C@H]13 [Eplerenone]
- Systolic Blood Pressure (aldosterone infused rats): significantly reduced, but did not normalize blood pressure
- Systolic Blood Pressure (aldosterone infused rats; listed as eplerenone): depression of this elevation
- TGF-β1 mRNA (AU) ([1]; after 7 days of treatment): 0.99 AU
- TGF-β1 mRNA (AU) ([1]; after 14 days of treatment): 1.26 AU
- TGF-β1 mRNA (AU) ([1]; after 30 days of treatment): 1.32 AU
- TGF-β (AU) ([1]; data used for Table 17 (7-day protocol), listed as Eplerenone + aldosterone + salt): 0.80 AU (2×) and 0.81 AU and 0.51 AU and 1.31 AU and 1.02 AU and 0.61 AU and 0.84 AU and 1.51 AU and 1.64 AU
- TGF-β (AU) ([1]; data used for Table 18 (14-day protocol), listed as Eplerenone + aldosterone + salt): 0.58 AU and 0.62 AU and 1.04 AU and 1.42 AU and 1.29 AU and 1.49 AU and 0.71 AU and 1.21 AU and 1.44 AU and 1.69 AU and 2.41 AU
- TGF-β (AU) ([1]; data used for Table 19 (30-day protocol), listed as Eplerenone + aldosterone + salt): 1.00 AU and 1.49 AU and 1.40 AU and 1.31 AU and 0.96 AU and 1.93 AU and 1.54 AU and 1.32 AU and 0.89 AU and 1.35 AU
- Hydroxyproline (hydroxyproline; [2]): 4.46 µg/mg
- Hydroxyproline (hydroxyproline; [3]): 4.10 µg/mg
- Hydroxyproline (hydroxyproline; individual rats, data used for Table 15 (14 days of treatment), incl. rat marked * excluded from statistics, listed as Eplerenone + aldosterone + salt): 2.95 µg/mg and 5.97 µg/mg and 6.52 µg/mg and 5.35 µg/mg and 6.80 µg/mg and 5.32 µg/mg and 2.72 µg/mg and 3.13 µg/mg and 2.41 µg/mg and 2.81 µg/mg and 5.03 µg/mg
- Hydroxyproline (hydroxyproline; individual rats, data used for Table 16 (30 days of treatment), incl. rat marked * excluded from statistics, listed as Eplerenone + aldosterone + salt): 5.18 µg/mg and 6.11 µg/mg and 5.17 µg/mg and 6.40 µg/mg and 2.73 µg/mg and 2.84 µg/mg and 2.97 µg/mg and 2.82 µg/mg and 2.72 µg/mg and 5.75 µg/mg
- Hydroxyproline (hydroxyproline; [4]): 3.06 µg/mg
- Hydroxyproline (hydroxyproline; [5]): 4.46 µg/mg
- Hydroxyproline (hydroxyproline; [6]): 4.10 µg/mg

Structure (SMILES): C[C@]12CCC(=O)C=C1CC[C@@H]1[C@@H]2[C@@H](O)C[C@]2(C=O)[C@@H](C(=O)CO)CC[C@@H]12 [Aldosterone]
- Systolic Blood Pressure (aldosterone infused rats): increased; also recorded: systolic blood pressure elevation
- TGF-β1 mRNA (AU) ([1]; after 7 days of treatment): 1.35 AU
- TGF-β1 mRNA (AU) ([1]; after 14 days of treatment): 1.27 AU
- TGF-β1 mRNA (AU) ([1]; after 30 days of treatment): 1.33 AU
- TGF-β (AU) ([1]; data used for Table 17 (7-day protocol), listed as Aldosterone + salt): 1.23 AU and 0.98 AU and 1.31 AU and 1.89 AU and 1.22 AU and 1.45 AU and 1.47 AU and 1.21 AU and 1.35 AU
- TGF-β (AU) ([1]; data used for Table 18 (14-day protocol), listed as Aldosterone + salt): 1.26 AU and 1.85 AU and 0.55 AU and 1.91 AU and 1.49 AU and 1.18 AU and 1.32 AU and 1.27 AU and 0.56 AU and 1.29 AU
- TGF-β (AU) ([1]; data used for Table 19 (30-day protocol), listed as Aldosterone + salt): 1.41 AU and 1.27 AU and 2.11 AU and 1.20 AU and 1.95 AU and 1.49 AU and 0.83 AU and 0.54 AU and 1.21 AU
- Hydroxyproline (hydroxyproline; [2]): 4.04 µg/mg
- Hydroxyproline (hydroxyproline; [3]): 4.39 µg/mg
- Hydroxyproline (hydroxyproline; individual rats, data used for Table 15 (14 days of treatment), incl. rat marked * excluded from statistics, listed as Aldosterone + salt): 2.89 µg/mg and 2.91 µg/mg and 6.28 µg/mg and 5.63 µg/mg and 4.83 µg/mg and 5.64 µg/mg and 5.29 µg/mg and 2.76 µg/mg and 2.68 µg/mg and 2.60 µg/mg and 3.00 µg/mg and 3.99 µg/mg and 2.73 µg/mg
- Hydroxyproline (hydroxyproline; individual rats, data used for Table 16 (30 days of treatment), incl. rat marked * excluded from statistics, listed as Aldosterone + salt): 7.24 µg/mg and 8.01 µg/mg and 3.62 µg/mg and 3.69 µg/mg and 4.00 µg/mg and 3.54 µg/mg and 3.07 µg/mg and 3.25 µg/mg and 3.09 µg/mg
- Hydroxyproline (hydroxyproline; [4]): 2.73 µg/mg
- Hydroxyproline (hydroxyproline; [5]): 4.04 µg/mg
- Hydroxyproline (hydroxyproline; [6]): 4.39 µg/mg
